Entries after “also recorded” stand apart in the source; their conditions may differ.
What was measured:
mitofusin [1] = test system: T1, mitofusin; test: mitofusin-dependent mitochondrial elongation (aspect ratio), functional screening; assay type: cell-based, mouse; settings: DMSO vehicle, Reg C positive control; FIGS. 2-5
T1 construct: EC50 Mito Elongation; other: benchmark <30; unit given as nm; results of functional screening (mitochondrial elongation); other: DMSO vehicle, Reg C positive control

Plasma stability, human = assay type: in vitro ADME; settings: H
Plasma stability, mouse = assay type: in vitro ADME; settings: M
MFN2 = biological target: T2, MFN2 (Homo sapiens, UniProt O95140); test: conformational opening of mitofusin 2; assay type: biochemical; settings: FIG. 6B
T2 sequence (O95140 1-757): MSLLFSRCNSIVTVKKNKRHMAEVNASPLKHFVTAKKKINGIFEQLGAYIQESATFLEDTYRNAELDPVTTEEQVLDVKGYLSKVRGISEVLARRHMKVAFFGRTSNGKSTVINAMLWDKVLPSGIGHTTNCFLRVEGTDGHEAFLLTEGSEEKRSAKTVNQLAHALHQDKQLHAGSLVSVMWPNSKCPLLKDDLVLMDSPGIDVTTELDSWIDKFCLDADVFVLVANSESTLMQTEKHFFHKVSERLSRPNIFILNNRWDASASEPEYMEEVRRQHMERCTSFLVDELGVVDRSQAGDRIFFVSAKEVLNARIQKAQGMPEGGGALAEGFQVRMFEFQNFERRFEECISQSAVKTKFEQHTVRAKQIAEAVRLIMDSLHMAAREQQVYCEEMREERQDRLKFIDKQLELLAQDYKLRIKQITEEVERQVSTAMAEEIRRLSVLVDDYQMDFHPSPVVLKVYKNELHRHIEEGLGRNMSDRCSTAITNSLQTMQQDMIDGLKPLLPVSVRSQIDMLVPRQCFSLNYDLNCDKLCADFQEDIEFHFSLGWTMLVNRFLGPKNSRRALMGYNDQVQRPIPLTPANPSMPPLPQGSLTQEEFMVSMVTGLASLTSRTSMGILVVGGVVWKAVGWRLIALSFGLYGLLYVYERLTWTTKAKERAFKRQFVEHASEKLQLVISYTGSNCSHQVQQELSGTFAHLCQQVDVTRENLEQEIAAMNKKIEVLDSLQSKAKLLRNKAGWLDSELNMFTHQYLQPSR

mitofusin [2] = settings: Rocha et al 2018 Science 360:336; read-out: EC50 as mitofusin activator; cited from earlier work

Row | Structure (SMILES) | results of functional screening (mitochondrial elongation) (mitofusin [1]) | EC50 (mitofusin [2]) [nM] | further results
1 | CC1CC(O)CCC1NC(=O)NCCCCc1ccccc1 (stereo not shown) [MiM5, 1-(4-Hydroxy-2-methylcyclohexyl)-3-(4-phenylbutyl)urea] | highly active | – | –
2 | O=C(CCCCCc1ccccn1)NC1CCC(O)CC1 (stereo not shown) [MiM111 N1, (4-Hydroxycyclohexyl)-6-(pyridin-2-yl)hexanamide] | All compounds except MiM111 N1 were highly active | – | –
3 | O=C(CCCCCc1ccccc1)NC1CCC(O)CC1 (stereo not shown) [MiM111, N-(4-hydroxycyclohexyl)-6-phenylhexanamide] | – | – | Plasma Stability (120 min.) (Plasma stability, human): 87%; Plasma Stability (120 min.) (Plasma stability, mouse): 100%; conformational opening of MFN2 (MFN2): induces an open conformation of its target MFN2; also recorded: conformational opening of MFN 2 mimics that of an agonist peptide
4 | CC1CCCCC1NC(=O)NCCSCc1ccccc1 (stereo not shown) [compound A, 1-[2-(benzylsulfanyl)ethyl]-3-(2-methylcyclohexyl)urea] | – | ~30 | –
5 | CC(Sc1nnc(C2CC2)n1-c1ccccc1)C(=O)Nc1sc2c(c1C(N)=O)CCC2 (stereo not shown) [compound B, 2-{2-[(5-cyclopropyl-4-phenyl-4H-1,2,4-triazol-3-yl)sulfanyl]propanamido}-4H,5H,6H-cyclopenta[b]thiophene-3-carboxamide] | – | ~10 | –
